Results reported in patent publication US20210317092A1 (BAYER PHARMA AKTIENGESELLSCHAFT, priority 2016, published 2021).

These compounds were tested against T1, human Bradykinin B1 receptor (Homo sapiens, UniProt P46663) (assay: Calcium flux Assay (FLIPR) with recombinant CHO-K1 cells expressing human Bradykinin B1 receptor, in presence (hB1 IC50) or absence (hB1 free IC50) of 0.1% BSA). Details: in absence of 0.1% BSA, read-out: hB1 free IC50.
T1 construct: host or cells: CHO-K1
T1 sequence (P46663 1-353): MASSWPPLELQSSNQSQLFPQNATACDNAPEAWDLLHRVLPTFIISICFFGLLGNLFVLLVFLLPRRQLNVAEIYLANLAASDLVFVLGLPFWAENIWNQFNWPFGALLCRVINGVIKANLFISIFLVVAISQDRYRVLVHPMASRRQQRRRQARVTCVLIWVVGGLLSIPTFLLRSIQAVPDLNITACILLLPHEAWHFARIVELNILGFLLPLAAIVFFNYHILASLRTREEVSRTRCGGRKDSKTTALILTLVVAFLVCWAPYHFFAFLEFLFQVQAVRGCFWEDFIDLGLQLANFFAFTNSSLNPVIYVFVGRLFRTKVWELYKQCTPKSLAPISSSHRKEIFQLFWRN
Assay type: cell-based

| IC50 | SMILES |
| --- | --- |
| 676 nM | Cc1nc(C(F)(F)F)nn1-c1ccc(NC(=O)C2(c3cccc(Cl)c3)CC2)cc1-c1nnn[nH]1 [Example 359, 1-(3-chlorophenyl)-N-{4-[5-methyl-3-(trifluoromethyl)-1H-1,2,4-triazol-1-yl]-3-(1H-tetrazol-5-yl)phenyl}cyclopro-panecarboxa-mide] |
| 37.1 nM | O=C(Nc1ccc(-n2ccc(C(F)(F)F)n2)c(-c2nnn[nH]2)c1)C1(c2ccc(OC(F)(F)F)cc2F)CC1 [Example 363, 1-[2-Fluoro-4-(trifluoromethoxy)phenyl]-N-{3-(1H-tetrazol-5-yl)-4-[3-(trifluoromethyl)-1H-pyrazol-1-yl]phenyl}cyclopro-panecarboxa-mide] |
| 94.2 nM | Cc1ccc(C2(C(=O)Nc3ccc(-n4ccc(C(F)(F)F)n4)c(-c4nnn[nH]4)c3)CC2)c(F)c1 [Example 366, 1-(2-Fluoro-4-methylphenyl)-N-{3-(1H-tetrazol-5-yl)-4-[3-(trifluoromethyl)-1H-pyrazol-1-yl]phenyl}cyclopro-panecarboxa-mide] |
| 26 nM | Cc1ccc(C2(C(=O)Nc3ccc(-n4cc(C(F)(F)F)cn4)c(-c4nnn[nH]4)c3)CC2)c(F)c1 [Example 368, 1-(2-Fluoro-4-methylphenyl)-N-{3-(1H-tetrazol-5-yl)-4-[4-(trifluoromethyl)-1H-pyrazol-1-yl]phenyl}cyclopro-panecarboxa-mide] |
| 873 nM | Cc1nc(C(F)(F)F)cn1-c1ccc(NC(=O)C2(c3ccc(C(F)(F)F)cc3F)CC2)cc1-c1nnn[nH]1 [Example 370, 1-[2-Fluoro-4-(trifluoromethyl)phenyl]-N-{4-[2-methyl-4-(trifluoromethyl)-1H-imidazol-1-yl]-3-(1H-tetrazol-5-yl)phenyl}cyclopro-panecarboxa-mide] |
| 282 nM | CCc1ccn(-c2ccc(NC(=O)C3(c4ccc(C)cc4F)CC3)cc2-c2nnn[nH]2)n1 [Example 371, N-[4-(3-ethyl-1H-pyrazol-1-yl)-3-(1H-tetrazol-5-yl)phenyl]-1-(2-fluoro-4-methylphenyl)cyclo-propanecar-boxamide] |
| 31.1 nM | CCc1ccn(-c2ccc(NC(=O)C3(c4ccc(C(F)(F)F)cc4F)CC3)cc2-c2nnn[nH]2)n1 [Example 372, N-[4-(3-Ethyl-1H-pyrazol-1-yl)-3-(1H-tetrazol-5-yl)phenyl]-1-[2-fluoro-4-(trifluoromethyl)phenyl]cyclopro-panecarboxamide] |
| 60.6 nM | CCc1cnn(-c2ccc(NC(=O)C3(c4ccc(C)cc4F)CC3)cc2-c2nnn[nH]2)c1 [Example 375, N-[4-(4-Ethyl-1H-pyrazol-1-yl)-3-(1H-tetrazol-5-yl)phenyl]-1-(2-fluoro-4-methylphenyl)cy-clopropanecar-boxamide] |
| 257 nM | Cc1ccc(C2(C(=O)Nc3ccc(-n4ccc(C(C)(C)C)n4)c(-c4nnn[nH]4)c3)CC2)c(F)c1 [Example 379, N-[4-(3-tert-Butyl-1H-pyrazol-1-yl)-3-(1H-tetrazol-5-yl)phenyl]-1-(2-fluoro-4-methylphenyl)cy-clopropanecar-boxamide] |
| 36.7 nM | CC(C)(C)c1ccn(-c2ccc(NC(=O)C3(c4ccc(OC(F)(F)F)cc4F)CC3)cc2-c2nnn[nH]2)n1 [Example 381, N-[4-(3-tert-Butyl-1H-pyrazol-1-yl)-3-(1H-tetrazol-5-yl)phenyl]-1-[2-fluoro-4-(trifluoromethoxy)phenyl]cyclo-propanecarboxa-mide] |
| 768 nM | CC(C)(C)c1ccn(-c2ccc(NC(=O)C3(c4cccc(Cl)c4)CC3)cc2-c2nnn[nH]2)n1 [Example 382, N-[4-(3-tert-Butyl-1H-pyrazol-1-yl)-3-(1H-tetrazol-5-yl)phenyl]-1-(3-chlorophenyl)cyclo-propanecarbox-amide] |
| 14.9 nM | O=C(Nc1ccc(-c2cc3ccccc3s2)c(-c2nnn[nH]2)c1)C1(c2ccc(C(F)(F)F)cc2F)CC1 [Example 384, N-[4-(1-benzothiophen-2-yl)-3-(1H-tetrazol-5-yl)phenyl]-1-[2-fluoro-4-(trifluoromethyl)phenyl]cyclopro-panecarboxamide] |
| 54.7 nM | O=C(Nc1ccc(-c2cc3ccccc3s2)c(-c2nnn[nH]2)c1)C1(c2ccc(F)c(F)c2)CC1 [Example 385, N-[4-(1-benzothiophen-2-yl)-3-(1H-tetrazol-5-yl)phenyl]-1-(3,4-difluorophenyl)cyclo-propanecar-boxamide] |
| 33.4 nM | Cc1ccc(C2(C(=O)Nc3ccc(-n4ccc(CC(F)(F)F)n4)c(-c4nnn[nH]4)c3)CC2)c(F)c1 [Example 388, 1-(2-fluoro-4-methylphenyl)-N-{3-(1H-tetrazol-5-yl)-4-[3-(2,2,2-trifluoroethyl)-1H-pyrazol-1-yl]phenyl}cyclopro-panecarboxa-mide] |

The next lines start with the compound.

| SMILES | IC50 |
| --- | --- |
| O=C(Nc1ccc(-n2cnc(C(F)(F)F)n2)c(-c2nnn[nH]2)c1)C1(c2ccc(F)c(F)c2)CC1 [Example 358, 1-(3,4-difluorophenyl)-N-{3-(1H-tetrazol-5-yl)-4-[3-(trifluoromethyl)-1H-1,2,4-triazol-1-yl]phenyl}cyclopro-panecarboxa-mide] | 2970 nM |
| Cc1nc(C(F)(F)F)nn1-c1ccc(NC(=O)C2(c3ccc(F)c(F)c3)CC2)cc1-c1nnn[nH]1 [Example 360, 1-(3,4-difluorophenyl)-N-{4-[5-methyl-3-(trifluoromethyl)-1H-1,2,4-triazol-1-yl]-3-(1H-tetrazol-5-yl)phenyl}cyclopro-panecarboxa-mide] | 1700 nM |
| O=C(Nc1ccc(-n2cc(C(F)(F)F)nn2)c(-c2nnn[nH]2)c1)C1(c2ccc(C(F)(F)F)cc2F)CC1 [Example 361, 1-[2-fluoro-4-(trifluoromethyl)phenyl]-N-{3-(1H-tetrazol-5-yl)-4-[4-(trifluoromethyl)-1H-1,2,3-triazol-1-yl]phenyl}cyclopro-panecarboxa-mide] | 419 nM |
| O=C(Nc1ccc(-n2cnc(C(F)(F)F)c2)c(-c2nnn[nH]2)c1)C1(c2ccc(OC(F)(F)F)cc2F)CC1 [Example 362, 1-[2-Fluoro-4-(trifluoromethoxy)phenyl]-N-{3-(1H-tetrazol-5-yl)-4-[4-(trifluoromethyl)-1H-imidazol-1-yl]phenyl}cyclopro-panecarboxa-mide] | 26.4 nM |
| O=C(Nc1ccc(-n2cc(C(F)(F)F)cn2)c(-c2nnn[nH]2)c1)C1(c2ccc(OC(F)(F)F)cc2F)CC1 [Example 364, 1-[2-fluoro-4-(trifluoromethoxy)phenyl]-N-{3-(1H-tetrazol-5-yl)-4-[4-(trifluoromethyl)-1H-pyrazol-1-yl]phenyl}cyclopro-panecarboxa-mide] | 12.7 nM |
| Cc1nc(C(F)(F)F)cn1-c1ccc(NC(=O)C2(c3ccc(OC(F)(F)F)cc3F)CC2)cc1-c1nnn[nH]1 [Example 365, 1-[2-Fluoro-4-(trifluoromethoxy)phenyl]-N-{4-[2-methyl-4-(trifluoromethyl)-1H-imidazol-1-yl]-3-(1H-tetrazol-5-yl)phenyl}cyclopro-panecarboxa-mide] | 535 nM |
| Cc1ccc(C2(C(=O)Nc3ccc(-n4cnc(C(F)(F)F)c4)c(-c4nnn[nH]4)c3)CC2)c(F)c1 [Example 367, 1-(2-Fluoro-4-methylphenyl)-N-{3-(1H-tetrazol-5-yl)-4-[4-(trifluoromethyl)-1H-imidazol-1-yl]phenyl}cyclopro-panecarboxa-mide] | 61.2 nM |
| Cc1ccc(C2(C(=O)Nc3ccc(-n4cc(C(F)(F)F)nc4C)c(-c4nnn[nH]4)c3)CC2)c(F)c1 [Example 369, 1-(2-Fluoro-4-methylphenyl)-N-{4-[2-methyl-4-(trifluoromethyl)-1H-imidazol-1-yl]-3-(1H-tetrazol-5-yl)phenyl}cyclopro-panecarboxa-mide] | 1130 nM |
| CCc1ccn(-c2ccc(NC(=O)C3(c4ccc(OC(F)(F)F)cc4F)CC3)cc2-c2nnn[nH]2)n1 [Example 373, N-[4-(3-Ethyl-1H-pyrazol-1-yl)-3-(1H-tetrazol-5-yl)phenyl]-1-[2-fluoro-4-(trifluoromethoxy)phenyl]cyclo-propanecarboxa-mide] | 24.2 nM |
| CCc1ccn(-c2ccc(NC(=O)C3(c4cccc(Cl)c4)CC3)cc2-c2nnn[nH]2)n1 [Example 374, 1-(3-Chlorophenyl)-N-[4-(3-ethyl-1H-pyrazol-1-yl)-3-(1H-tetrazol-5-yl)phenyl]cyclopro-panecarboxa-mide] | 1890 nM |
| CCc1cnn(-c2ccc(NC(=O)C3(c4ccc(C(F)(F)F)cc4F)CC3)cc2-c2nnn[nH]2)c1 [Example 376, N-[4-(4-Ethyl-1H-pyrazol-1-yl)-3-(1H-tetrazol-5-yl)phenyl]-1-[2-fluoro-4-(trifluoromethyl)phenyl]cyclopro-panecarboxamide] | 12 nM |
| CCc1cnn(-c2ccc(NC(=O)C3(c4ccc(OC(F)(F)F)cc4F)CC3)cc2-c2nnn[nH]2)c1 [Example 377, N-[4-(4-ethyl-1H-pyrazol-1-yl)-3-(1H-tetrazol-5-yl)phenyl]-1-[2-fluoro-4-(trifluoromethoxy)phenyl]cyclo-propanecarboxa-mide] | 6.57 nM |
| CCc1cnn(-c2ccc(NC(=O)C3(c4cccc(Cl)c4)CC3)cc2-c2nnn[nH]2)c1 [Example 378, 1-(3-Chlorophenyl)-N-[4-(4-ethyl-1H-pyrazol-1-yl)-3-(1H-tetrazol-5-yl)phenyl]cyclopro-panecarboxa-mide] | 343 nM |
| O=C(Nc1ccc(-c2cc3ccccc3s2)c(-c2nnn[nH]2)c1)C1(c2cccc(Cl)c2)CC1 [Example 383, N-[4-(1-benzothiophen-2-yl)-3-(1H-tetrazol-5-yl)phenyl]-1-(3-chlorophenyl)cyclo-propanecarbox-amide] | 142 nM |
| O=C(Nc1ccc(-n2ccc(CC(F)(F)F)n2)c(-c2nnn[nH]2)c1)C1(c2cccc(Cl)c2)CC1 [Example 386, 1-(3-chlorophenyl)-N-{3-(1H-tetrazol-5-yl)-4-[3-(2,2,2-trifluoroethyl)-1H-pyrazol-1-yl]phenyl}cyclopro-panecarboxa-mide] | 146 nM |
